What was measured:
Assay type in all cases: biochemical
[1] = target: CDK2/Cyclin A complex (Homo sapiens, UniProt P24941); test: CDK2/Cyclin A assay; settings: for inhibition at 1 µM: combinatorial library compounds
Description: CDK2/Cyclin A Construct for Assay: CDK2 was purified using published methodology (Rosenblatt et al., J. Mol. Biol., 230, 1317-1319 (1993)) from insect cells that had been infected with a baculovirus expression vector. Cyclin A was purified from E. coli cells expressing full-length recombinant cyclin A, and a truncated cyclin A construct was generated by limited proteolysis and purified as described previously (Jeffrey et al., Nature, 376, 313-320 (Jul. 27, 1995)).
(§1) CDK2/Cyclin A and CDK4/Cyclin D Assays
(§2) Cyclin-dependent kinase activity was measured by quantifying the enzyme-catalyzed, time-dependent incorporation of radioactive phosphate from [^32P]ATP into a recombinant fragment of the retinoblastoma protein. Unless noted otherwise, assays were performed in 96-well plates in a total volume of 50 μL, in the presence of 10 mM HEPES (N-[2-hydroxyethyl]piperazine-N′-[2-ethanesulfonic acid]) (pH 7.4), 10 mM MgCl2, 25 μM adenosine triphosphate (ATP), 1 mg/mL ovalbumin, 5 μg/mL leupeptin, 1 mM dithiothreitol, 10 mM β-glycerophosphate, 0.1 mM sodium vanadate, 1 mM sodium fluoride, 2.5 mM ethylene glycol-bis(β-aminoethyl ether)-N,N,N′N′-tetraacetic acid (EGTA), 2% (v/v) dimethylsulfoxide, and 0.03-0.2 μCi [^32P]ATP. The substrate (0.3-0.5 μg) was purified recombinant retinoblastoma protein fragment (Rb) (residues 386-928 of the native retinoblastoma protein; 62.3 kDa, containing the majority of the phosphorylation sites found in the native 106-kDa protein, as well as a tag of six histidine residues for ease of purification). Reactions were initiated with CDK2 (150 nM CDK2/Cyclin A complex) or CDK4 (50 nM CDK4/Cyclin D3 complex), incubated at 30° C., and terminated after 20 minutes by the addition of ethylenediaminetetraacetic acid EDTA) to 250 mM. The phosphorylated substrate was then captured on a nitrocellulose membrane using a 96-well filtration manifold, and unincorporated radioactivity was removed by repeated washing with 0.85% phosphoric acid. Radioactivity was quantified by exposing the dried nitrocellulose membranes to a phosphorimager. Apparent Ki values were measured by assaying enzyme activity in the presence of different compound concentrations and subtracting the background radioactivity measured in the absence of enzyme. The kinetic parameters (kcat, Km for ATP) were measured for each enzyme under the usual assay conditions by determining the dependence of initial rates on ATP concentration. The data were fit to an equation for competitive inhibition using Kaleidagraph (Synergy Software), or were fit to an equation for competitive tight-binding inhibition using the software KineTic (BioKin, Ltd.). Measured Ki values for known inhibitors against CDK4 and CDK2 agreed with published IC50 values. The specific activity of CDK4 was the same whether complexed to full-length cyclin D3 or the truncated Cyclin D3 construct; both complexes also yielded very similar Ki values for selected inhibitors.

[2] = target: T1, phosphorylated VEGF-R2Δ50 (FLVK-P) (Homo sapiens, UniProt P35968, DEL940-989/E990V); test: VEGF-R2 coupled spectrophotometric (FLVK-P) assay; settings: read-out: VEGF % inhibition at 20 μM, 20 μM; combinatorial library compounds
T1 construct: VEGF-R2Δ50 contains residues 806-939 and 990-1171; made in house; host or cells: baculovirus/insect cells
T1 sequence (P35968 with tags, fused parts or gaps DEL940-989/E990V limits assumed): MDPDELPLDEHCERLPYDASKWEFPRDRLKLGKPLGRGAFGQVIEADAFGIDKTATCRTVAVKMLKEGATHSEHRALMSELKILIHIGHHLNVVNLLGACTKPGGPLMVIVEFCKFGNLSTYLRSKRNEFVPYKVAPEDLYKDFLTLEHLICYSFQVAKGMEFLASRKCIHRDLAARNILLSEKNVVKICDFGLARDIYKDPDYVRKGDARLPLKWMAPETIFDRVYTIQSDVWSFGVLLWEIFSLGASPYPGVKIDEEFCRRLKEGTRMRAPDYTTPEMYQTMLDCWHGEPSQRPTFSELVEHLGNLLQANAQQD
Procedure, shortened: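 Baculovirus-expressed human VEGF-R2Δ50 (residues 806-939/990-1171, E990V) was autophosphorylated with 3 mM ATP, 40 mM MgCl2 for 2 h at 4° C. ADP formation was coupled via PK/LDH to NADH oxidation, read at 340 nm, with 5.1 mM poly(E4Y1), 1 mM ATP, 25 mM MgCl2, Hepes pH 7.5. Ki came from activity across compound concentrations.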

[3] = target: T2, CDK4/Cyclin D3 complex (Homo sapiens, UniProt P11802); test: CDK4/Cyclin D assay; settings: for inhibition at 1 µM: combinatorial library compounds; for inhibition at 100 µM: at 100 (printed 100 or 100 μM)
T2 construct: made in house; host or cells: insect cells co-infected with baculovirus vectors
T2 sequence (P11802 whole entry): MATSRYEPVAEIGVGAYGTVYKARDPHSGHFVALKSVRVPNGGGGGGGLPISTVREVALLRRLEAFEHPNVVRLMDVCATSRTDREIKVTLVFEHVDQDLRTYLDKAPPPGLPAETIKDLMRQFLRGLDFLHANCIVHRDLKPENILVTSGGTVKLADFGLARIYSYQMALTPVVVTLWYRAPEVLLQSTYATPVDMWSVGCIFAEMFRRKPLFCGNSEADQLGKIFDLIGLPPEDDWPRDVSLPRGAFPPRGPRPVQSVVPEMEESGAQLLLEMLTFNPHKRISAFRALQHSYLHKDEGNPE
T2 sequence (P30281 whole entry partner): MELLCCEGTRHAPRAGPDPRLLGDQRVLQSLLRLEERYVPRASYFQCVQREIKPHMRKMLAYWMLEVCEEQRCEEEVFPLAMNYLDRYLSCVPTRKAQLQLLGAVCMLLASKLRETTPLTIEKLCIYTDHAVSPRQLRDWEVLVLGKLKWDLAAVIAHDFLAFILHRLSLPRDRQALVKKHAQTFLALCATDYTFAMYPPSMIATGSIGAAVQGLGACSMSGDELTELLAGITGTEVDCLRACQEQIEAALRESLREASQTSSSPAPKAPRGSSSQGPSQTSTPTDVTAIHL
Experimental: CDK4/Cyclin D Construct for Assay: A complex of human CDK4 and cyclin D3, or a complex of cyclin DI and a fusion protein of human CDK4 and glutathione-S-transferase (GST-CDK4), was purified using traditional biochemical chromatographic techniques from insect cells that had been co-infected with the corresponding baculovirus expression vectors.
as §1, §2

[4] = target: T3, FL-CHK1 (Homo sapiens, UniProt O14757); test: CHK1 assay; settings: 20 μM; combinatorial library compounds
T3 construct: C-terminally His-tagged full-length human CHK1 (FL-CHK1); 6xHis (C); made in house; host or cells: baculovirus/insect cells
T3 sequence (O14757 1-476): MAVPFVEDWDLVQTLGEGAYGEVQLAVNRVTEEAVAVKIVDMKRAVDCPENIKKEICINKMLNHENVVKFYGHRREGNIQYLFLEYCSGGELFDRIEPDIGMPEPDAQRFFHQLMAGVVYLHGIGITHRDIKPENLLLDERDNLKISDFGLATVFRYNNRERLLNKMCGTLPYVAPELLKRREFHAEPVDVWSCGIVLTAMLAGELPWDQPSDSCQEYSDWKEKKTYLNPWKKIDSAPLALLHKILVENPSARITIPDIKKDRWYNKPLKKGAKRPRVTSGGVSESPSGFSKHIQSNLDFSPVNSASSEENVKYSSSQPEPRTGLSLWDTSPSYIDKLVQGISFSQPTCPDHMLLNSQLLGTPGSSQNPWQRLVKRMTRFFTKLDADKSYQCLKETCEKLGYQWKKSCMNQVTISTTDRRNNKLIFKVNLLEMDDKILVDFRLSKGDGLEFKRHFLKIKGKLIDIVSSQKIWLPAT
Description: CHK-1 Construct for Assay: C-terminally His-tagged full-length human CHK1 (FL-CHK1) was expressed using the baculovirus/insect cell system. It contains 6 histidine residues (6×His-tag) at the C-terminus of the 476 amino acid human CHK1. The protein was purified by conventional chromatographic techniques.
The production of ADP from ATP that accompanies phosphoryl transfer to the synthetic substrate peptide Syntide-2 ([…]) was coupled to oxidation of NADH using phosphoenolpyruvate (PEP) through the actions of pyruvate kinase (PK) and lactic dehydrogenase (LDH). The oxidation of NADH was monitored by following the decrease of absorbance at 340 nm (ε340=6.22 cm^−1 mM^−1) using a HP8452 spectrophotometer. Typical reaction solutions contained: […]; 0.15 mM NADH; 28 units of LDH/ml; 16 units of PK/ml; 3 mM DTT; 0.125 mM Syntide-2; 0.15 mM ATP; 25 mM MgCl2 in 50 mM TRIS, pH 7.5; and 400 mM NaCl. Assays were initiated with 10 nM of FL-CHK1. Ki values were determined by measuring initial enzyme activity in the presence of varying concentrations of test compounds. The data were analyzed using Enzyme Kinetic and Kaleidagraph software.

Compound	inhibition at 1 µM [1] [%]	inhibition at 20 µM [2] [%]	inhibition at 1 µM [3] [%]	inhibition at 20 µM [4] [%]	Ki ([1]; Table 2) [nM]	other results
Nc1nc(Nc2ccc(S(N)(=O)=O)cc2)sc1-c1nc(-c2cc(Br)c(Cl)s2)cs1	60.5	6	56.4	7.9	–	–
COc1cccc(-c2csc(-c3sc(Nc4ccc(S(N)(=O)=O)cc4)nc3N)n2)c1	5.9	23	-4.2	15.2	–	–
CCOC(=O)c1ccccc1-c1csc(-c2sc(Nc3ccc(S(N)(=O)=O)cc3)nc2N)n1	52.6	9	53.3	11.4	–	–
Cc1c(C)c(C)c(-c2csc(-c3sc(Nc4ccc(S(N)(=O)=O)cc4)nc3N)n2)c(C)c1C	77.2	33	64.1	29	–	–
Nc1nc(Nc2ccc(S(N)(=O)=O)cc2)sc1-c1nc(-c2cc(-c3ccccc3)no2)cs1	12	-1	-0.5	-1.2	–	–
Nc1nc(Nc2ccc(S(N)(=O)=O)cc2)sc1-c1nc(-c2cc(-c3ccc(Cl)c(Cl)c3)no2)cs1	16.1	-5	-31.3	0.5	–	–
CCCCCc1ccc(-c2csc(-c3sc(Nc4ccc(S(N)(=O)=O)cc4)nc3N)n2)cc1	-9.9	–	-7.2	10.8	–	–
CC(=O)Oc1ccccc1-c1csc(-c2sc(Nc3ccc(S(N)(=O)=O)cc3)nc2N)n1	25.4	33	-4.8	-7.3	–	–
Nc1nc(Nc2ccc(S(N)(=O)=O)cc2)sc1-c1nc(-c2c(Cl)cc(C(F)(F)F)cc2Cl)cs1	53.9	9	58	21.7	–	–
CCN(CC)c1ccc(-c2csc(-c3sc(Nc4ccc(S(N)(=O)=O)cc4)nc3N)n2)cc1	34.8	10	29.3	6.1	–	–
Nc1nc(Nc2ccc(S(N)(=O)=O)cc2)sc1-c1nc(-c2csc3ccccc23)cs1	48.9	10	44.1	0.4	–	–
CN(C)CCNS(=O)(=O)c1ccc(Nc2nc(N)c(-c3nc(C(=O)c4ccccc4)cs3)s2)cc1 [A(71), 4-(4′-Amino-4-benzoyl-[2,5′]bithiazolyl-2′-ylamino)-N-(2-dimethylamino-ethyl)-benzenesulfonamide]	–	–	–	–	29000	Ki ([3]; Table 2): 190 µM
Nc1cccc(C(=O)c2csc(-c3sc(Nc4ccc(S(N)(=O)=O)cc4)nc3N)n2)c1 [A(72), 4-[4-Amino-4-(3-amino-benzoyl)-[2,5′]bithiazoyl-2′-ylamino]-benzenesulfonamide]	–	–	–	–	160	inhibition at 5 µM ([3]; Table 2): 48%
Nc1cccc(-c2csc(-c3sc(Nc4ccc(S(N)(=O)=O)cc4)nc3N)n2)c1 [C(3)]	–	–	–	–	2700	Ki ([3]; Table 2): 4.6 µM
Nc1nc(N)c(-c2nc(C(=O)c3ccccc3)cs2)s1 [E(4), (2′,4′-Diamino-[2,5′]bithiazolyl-4-yl)-phenyl-methanone]	–	–	–	–	8800	Ki ([3]; Table 2): 21 µM
CC(=O)Nc1nc(N)c(-c2nc(C(=O)c3ccccc3)cs2)s1 [F(16), N-(4′-Amino-4-benzoyl-[2,5′]bithiazolyl-2′-yl)-acetamide]	–	–	–	–	–	Ki ([1]; Table 3): 480 nM; inhibition at 5 µM ([3]; Table 3): 35%
Nc1nc(Nc2ccc(S(N)(=O)=O)cc2)sc1-c1nccn1Cc1ccc(Cl)cc1 [G(8), 4-{4-Amino-5-[1-(4-chloro-benzyl)-1H-imidazol-2-yl]-thiazol-2-ylamino}-benzenesulfonamide]	–	–	–	–	18000	inhibition at 100 µM ([3]; Table 2): 31%
Nc1nc(Nc2ccc(S(N)(=O)=O)cc2)sc1-c1nc(O)c(-c2ccc(O)cc2)s1 [H(2), 4-[4′-Amino-4-hydroxy-5-(4-hydroxy-phenyl)-[2,5′]bithiazolyl-2′-yl-amino]-benzenesulfonamide]	–	–	–	–	10400	Ki ([3]; Table 2): 11 µM
Nc1nc(Nc2ccc(S(N)(=O)=O)cc2)sc1-c1nc(O)c(-c2ccccc2O)s1 [H(4), 4-[4′-Amino-4-hydroxy-5-(2-hydroxy-phenyl)-[2,5′]bithiazoly-2′-ylamino]-benzenesulfonamide]	–	–	–	–	2600	Ki ([3]; Table 2): 2.1 µM
Nc1nc(Nc2ccc(S(N)(=O)=O)cc2)sc1C1=NC2(O)OCCC2S1 (stereo not shown) [H(5), 4-[4′-Amino-4-hydroxy-5-(2-hydroxy-ethyl)-3′H-1′-[2,5]bithiazolyl-2′-ylamino]-benzenesulfonamide]	–	–	–	–	–	CDK2 % inhibition @ 100 ([1]; Table 2, at 100 (printed 100 or 100 μM)): 29% @; inhibition at 100 µM ([3]; Table 2): < 0%
Nc1csc(-c2sc(Nc3ccc(S(N)(=O)=O)cc3)nc2N)n1 [H(6), 4-(4,4′-Diamino-[2,5′]bithiazolyl-2′-ylamino)-benzenesulfonamide]	–	–	–	–	200	Ki ([3]; Table 2): 1.2 µM
CN(C)CCNC(=O)c1csc(-c2sc(Nc3ccc(S(N)(=O)=O)cc3)nc2N)n1 [N(2), 4-Amino-2′-(4-sulfamoyl-phenylamino)-[2,5′]-bithiazoyl-4-carboxylic acid (2-dimethylamino-ethyl)-amide]	–	–	–	–	–	Ki ([1]; Table 3): 120 nM; Ki ([3]; Table 3): 1.3 µM
Nc1nc(Nc2ccc(S(N)(=O)=O)cc2)sc1-c1nc(C(=O)Nc2ccccc2)cs1 [N(4), 4′-Amino-2′-(4-sulfamoyl-phenylamino)-[2,5′]bithiazolyl-4 carboxylic acid phenylamide]	–	–	–	–	–	Ki ([1]; Table 3): 158 nM; Ki ([3]; Table 3): 0.48 µM

— patent US6620828B2, “Thiazole compounds and pharmaceutical compositions for inhibiting protein kinases and methods for their use” (Agouron Pharmaceuticals, Inc., priority 1999, dated 2003)
